Data reported in patent US20260035364A1, “BICYCLIC TETRAHYDROTHIAZEPINE DERIVATIVES” (Hoffmann-La Roche Inc., priority 2022, published 2026).
Like-named read-outs stand apart in the source and are kept apart here.

Key:
primary human T-cells = experiment: T-cell proliferation assay (CellTiter-Glo); format: cell-based; conditions: CD3 condition; for Emax: read-out: Emax proliferation (% activation); for EC50: proliferation after 5 days, CellTiter-Glo, read-out: Tcell Proliferation CD3 EC50
Description: Expanded primary human T-cells are thawed and cultured in RPMI 1640 (Gibco, #61870-010)+5% human serum (HS, Sigma, #H3667)+1 mM Sodium Pyruvate (Gibco, #11360-039)+50 μM 2-mercaptoethanol (Gibco, #31350-010) and 1× Pen-Strep (Life Technologies, #15140122) medium at density of 2 Mio/ml for 3 hours in 5% CO2, 37° C. and 95% humidity. For coating of plates, PBS++ only or PBS++ with CD3 antibody (concentration depending on donor and determined by CD3 titrations) is added 100 μl/well to Poly-D Lysine coated 96-well plates. Plates are sealed and incubated at room temperature for 3 hours on a table-top rocking platform. After incubation, plates are washed once with PBS−− and filled with 40 μl/well culture medium only. Compounds are then added (see next section) to medium only plates. After 3 hours of culturing the T-cells, cells are filtered through a cell strainer (Miltenyi Biotech, #130-041-407), counted again and concentration is adjusted to 1.25 Mio/ml.
Cells are then seeded 80 μl/well to the 40 µl/well including dispensed compounds according to plate layout. By adding cells, compounds are further diluted 1:3, and resulting in 100k cells/120 µl/well. After 48 hours 40 μl of supernatant is collected carefully from the top while not disturbing the cells. Cells are assessed for proliferation 5 days later by measuring […] using CellTiterGlo (Promega).
Compounds were added in a 5 or 6 pt dose response with the Tecan D300e Digital Dispenser, all conditions 3 times more concentrated than the end-concentration, since cells are added afterwards (80p1 cells to 40p1 prepared medium with treatment). The DR was starting at 20 μM or 10 μM final top concentration and a dilution factor of 3.333. The positive control was the reference compound A1 that was added in a dose response as well, additionally to 3 wells of only 20 μM representing the positive stimulator control. All wells were normalized with DMSO to a final concentration of 0.6% (0.2% end-concentration).
After 5 days, for detection of ATP which is directly proportional to the number of cells present per well, the CellTiter-Glo® 2.0 Reagent is used. After visual control for toxicity or precipitations of the tested compounds, the plates are equilibrated to room temperature for 45 minutes. CellTiter-Glo® 2.0 Reagent is equilibrated to room temperature as well. After equilibration, an equal amount of CellTiter-Glo reagent is added to the cells (80 µl/well) with an electronic multichannel pipette. Plates are placed on a rocking platform for 15 minutes at room temperature. After incubation, the bottom of the plates is sealed with backing tape. Luminescence is measured with PHERAstar FSX (interval time 0.5 sec, gain 3000, focal height 15 mm) and exported as CSV file for analysis in Genedata screener.
Calculations and Data Reporting CD3 and PBS plates were analysed separately in Genedata Screener using Roche Normalization PCT_POS_CTRL with DMSO set as Neutral Control and 20 μM of the reference compound A1 set as Stimulator Control/100%.
For CD3 conditions EC50 and Emax of the fitted sigmoidal curve were reported. If no curve could be fitted, the EC50 was reported as blank field and the Emax was based on individual data points. […] Compounds which activate unstimulated cells (see IL2 measurements) or compounds which negatively affected viability were flagged.

DGKzeta = DGKzeta (Homo sapiens, UniProt Q13574); experiment: In vitro DGK inhibition assay (ADP-Glo, liposomes), DGKzeta; format: biochemical; design: hDGKzeta(1-928)-N-His; His (N); made in house; host or cells: Sf21 insect cells (baculovirus); conditions: 2 nM DGK ζ, 50 μM ATP, 125 uM DLG in liposomes, 1 hour reaction
Description: (§1) DGK α and ζ kinases use ATP to phosphorylate the substrate 1,2-dilauroyl-sn-glycerol (DLG, incorporated in the liposomes). ATP is converted to ADP as a result of this enzymatic reaction. After the kinase reaction, an ATP-depletion reagent is added to terminate the kinase reaction and deplete any remaining ATP, leaving only ADP. Second, a detection reagent is added to simultaneously convert ADP to ATP and allow the newly synthesized ATP to be converted to light using a coupled luciferase/luciferin reaction.
(§2) Purification of both enzymes was performed as previously described by Takahashi et al., PeerJ, 2018 (Takahashi, D.; Sakane, F. Expression and purification of human diacylglycerol kinase alpha from baculovirus-infected insect cells for structural studies. PeerJ 2018, 6, No. e5449).
(§3) A concentrated liposome solution was prepared in assay buffer without DTT and BSA: 2 mM of DLG in 21 mM of total liposome (2 mM DLG/8 mM PS/11 mM PC). The reaction mixtures contain the assay buffer with a final DLG concentration of 125 uM ATP concentrations of 25 μM (for DGKA assay) or 50 μM (for DGKZ assay). The reactions were started by addition of DGK a and (kinases at 4 nM and 2 nM final concentrations, respectively. After 1 hour reaction, the amount of ADP formed was detected with the ADP-Glo kinase assay (Promega) according to the manufacturer instructions. Compounds were added in 11-points dose response, starting at […], 1:3 dilutions, with a final DMSO concentration of 2%. The multidrop combi was used as a liquid handler and luminescence was read with 0.5 s by the envision reader (PE).

DGKalpha = DGKalpha (Homo sapiens, UniProt P23743); experiment: In vitro DGK inhibition assay (ADP-Glo, liposomes), DGKalpha; format: biochemical; design: hDGKalpha(1-735)-N-His; His (N); made in house; host or cells: Sf21 insect cells (baculovirus); conditions: 4 nM DGK α, 25 μM ATP, 125 uM DLG in liposomes, 1 hour reaction
Description: as §1
as §2, with “Full length DGKA and Z were expressed in Sf21 insect cells by infecting the cells with the baculovirus stock at MOI of 2. Purification” for “Purification”
as §3

[1] = Homo sapiens, T-cell, 120 h, 5 days, 20 μM reference compound A1 = 100%

Sequence of DGKzeta (Q13574 whole entry): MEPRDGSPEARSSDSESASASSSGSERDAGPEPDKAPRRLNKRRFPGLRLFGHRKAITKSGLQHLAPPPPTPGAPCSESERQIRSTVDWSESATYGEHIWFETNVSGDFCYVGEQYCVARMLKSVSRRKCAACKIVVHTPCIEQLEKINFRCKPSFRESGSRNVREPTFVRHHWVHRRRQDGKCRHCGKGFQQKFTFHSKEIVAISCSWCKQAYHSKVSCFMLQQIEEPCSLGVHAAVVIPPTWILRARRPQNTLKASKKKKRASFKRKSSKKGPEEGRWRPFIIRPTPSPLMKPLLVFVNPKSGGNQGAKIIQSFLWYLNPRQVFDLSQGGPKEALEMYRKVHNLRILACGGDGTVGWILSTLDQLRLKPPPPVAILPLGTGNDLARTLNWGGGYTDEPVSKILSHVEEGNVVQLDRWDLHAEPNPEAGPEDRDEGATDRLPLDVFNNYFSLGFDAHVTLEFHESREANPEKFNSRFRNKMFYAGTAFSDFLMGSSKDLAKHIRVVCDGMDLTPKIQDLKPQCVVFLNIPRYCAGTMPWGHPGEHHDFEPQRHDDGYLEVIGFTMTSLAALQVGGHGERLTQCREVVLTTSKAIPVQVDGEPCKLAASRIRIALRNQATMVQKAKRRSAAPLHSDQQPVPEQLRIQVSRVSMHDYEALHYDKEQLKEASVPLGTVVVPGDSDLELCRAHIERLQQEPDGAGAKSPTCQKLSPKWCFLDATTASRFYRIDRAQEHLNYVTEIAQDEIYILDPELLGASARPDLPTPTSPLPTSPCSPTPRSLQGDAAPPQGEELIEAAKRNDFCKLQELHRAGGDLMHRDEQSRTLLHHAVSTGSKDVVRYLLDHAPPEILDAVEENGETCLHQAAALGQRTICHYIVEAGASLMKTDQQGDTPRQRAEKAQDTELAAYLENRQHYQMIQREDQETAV
Sequence of DGKalpha (P23743 whole entry): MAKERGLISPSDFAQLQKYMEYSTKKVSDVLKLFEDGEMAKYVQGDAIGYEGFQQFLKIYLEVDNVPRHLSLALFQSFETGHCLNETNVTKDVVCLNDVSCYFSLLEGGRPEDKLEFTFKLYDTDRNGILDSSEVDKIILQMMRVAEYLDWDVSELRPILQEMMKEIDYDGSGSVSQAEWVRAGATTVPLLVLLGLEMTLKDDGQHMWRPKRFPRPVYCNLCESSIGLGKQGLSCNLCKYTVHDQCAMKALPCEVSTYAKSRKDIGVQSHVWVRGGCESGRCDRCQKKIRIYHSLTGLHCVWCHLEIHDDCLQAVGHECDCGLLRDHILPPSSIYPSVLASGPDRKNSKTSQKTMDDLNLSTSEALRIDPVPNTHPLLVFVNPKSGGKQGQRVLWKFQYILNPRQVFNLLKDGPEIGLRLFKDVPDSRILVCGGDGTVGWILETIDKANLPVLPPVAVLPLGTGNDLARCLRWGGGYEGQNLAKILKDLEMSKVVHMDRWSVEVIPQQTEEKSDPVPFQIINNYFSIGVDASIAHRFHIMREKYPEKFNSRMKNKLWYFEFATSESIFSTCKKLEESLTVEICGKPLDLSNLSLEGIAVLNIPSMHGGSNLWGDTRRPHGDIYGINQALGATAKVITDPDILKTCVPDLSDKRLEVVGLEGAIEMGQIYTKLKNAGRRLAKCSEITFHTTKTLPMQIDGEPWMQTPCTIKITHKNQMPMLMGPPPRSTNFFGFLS

| SMILES | Emax (primary human T-cells; [1]) | EC50 (primary human T-cells; Homo sapiens, T-cell, 120 h) | IC50 (DGKzeta) | IC50 (DGKalpha) | Emax proliferation (% activation) (primary human T-cells; 5 days, 20 μM reference compound A1 = 100%) | EC50 (primary human T-cells) |
| --- | --- | --- | --- | --- | --- | --- |
| CS(=O)(=O)C1(c2nnc(-c3ccc4c(c3)N(Cc3ccc(Oc5ccccc5)cc3)C(=O)[C@@H](N)CS4(=O)=O)o2)CC1 [Example 66, (3R)-3-amino-7-[5-(1-methylsulfonylcyclopropyl)-1,3,4-oxadiazol-2-yl]-1,1-dioxo-5-[(4-phenoxyphenyl)methyl]-2,3-dihydro-1λ6,5-benzothiazepin-4-one] | 144% | 2170 nM | 1160 nM | 10700 nM |  |  |
| CC(C)(c1nc(-c2cc3c(cc2F)[S+]([O-])C[C@H](N)C(=O)N3Cc2ccc(Oc3ccccc3)cc2)no1)S(C)(=O)=O (stereo partly drawn) [Example 52, (3R)-3-amino-8-fluoro-7-[5-(1-methyl-1-methylsulfonyl-ethyl)-1,2,4-oxadiazol-3-yl]-1-oxo-5-[(4-phenoxyphenyl)methyl]-2,3-dihydro-1λ4,5-benzothiazepin-4-one] |  |  | 419 nM | 1550 nM | 181% | 978 nM |
| CC(C)(c1nnc(-c2ccc3c(c2)N(Cc2ccc(Oc4cc(F)cc(C(F)(F)F)c4)cc2)C(=O)[C@@H](N)CS3(=O)=O)o1)S(C)(=O)=O [Example 39] | 108% | 1330 nM | 2630 nM | 34900 nM |  |  |
| CC(C)(c1nnc(-c2ccc3c(c2)N(Cc2ccc(Oc4cccc(OC(F)(F)F)c4)cc2)C(=O)[C@@H](N)CS3(=O)=O)o1)S(C)(=O)=O [Example 40, (3R)-3-amino-7-[5-(1-methyl-1-methylsulfonyl-ethyl)-1,3,4-oxadiazol-2-yl]-1,1-dioxo-5-[[4-[3-(trifluoromethoxy)phenoxy]phenyl]methyl]-2,3-dihydro-126,5-benzothiazepin-4-one] | 148% | 903 nM | 893 nM | 1970 nM |  |  |
| CS(=O)(=O)Cn1nnc(-c2cc3c(cc2F)S(=O)(=O)C[C@H](N)C(=O)N3Cc2ccc(Oc3ccccc3)cc2)n1 [Example 54, (3R)-3-amino-8-fluoro-7-[2-(methylsulfonylmethyl)tetrazol-5-yl]-1,1-dioxo-5-[(4-phenoxyphenyl)methyl]-2,3-dihydro-1λ6,5-benzothiazepin-4-one] | 310% | 1540 nM | 603 nM | 1170 nM |  |  |
| CC(C)(c1nnc(-c2ccc3c(c2)N(Cc2ccc(-c4ccc(OC(F)(F)F)cn4)cc2)C(=O)[C@@H](N)CS3(=O)=O)o1)S(C)(=O)=O [Example 69, (3R)-3-amino-1,1-diketo-7-[5-(1-mesyl-1-methyl-ethyl)-1,3,4-oxadiazol-2-yl]-5-[4-[5-(trifluoromethoxy)-2-pyridyl]benzyl]-2,3-dihydro-1λ6,5-benzothiazepin-4-one] | 91% | 31 nM | 826 nM | 175 nM |  |  |
| CC(C)(c1nnc(-c2cc3c(cc2F)S(=O)(=O)C[C@H](N)C(=O)N3Cc2ccc(Oc3ccccc3)cc2)o1)S(C)(=O)=O [Example 27, (3R)-3-amino-8-fluoro-7-[5-(1-methyl-1-methylsulfonyl-ethyl)-1,3,4-oxadiazol-2-yl]-1,1-dioxo-5-[(4-phenoxyphenyl)methyl]-2,3-dihydro-1λ6,5-benzothiazepin-4-one] | 136% | 863 nM | 657 nM | 483 nM |  |  |
| COc1ccc(-c2ccc(CN3C(=O)[C@@H](N)CS(=O)(=O)c4cc(F)c(-c5noc(C(C)(C)S(C)(=O)=O)n5)cc43)cc2)cc1 [Example 50, (3R)-3-amino-8-fluoro-5-[[4-(4-methoxyphenyl)phenyl]methyl]-7-[5-(1-methyl-1-methylsulfonyl-ethyl)-1,2,4-oxadiazol-3-yl]-1,1-dioxo-2,3-dihydro-1λ6,5-benzothiazepin-4-one] | 293% | 757 nM | 377 nM | 2110 nM |  |  |
| CC(C)(c1nnc(-c2ccc3c(c2)N(Cc2ccc(OCc4ccccc4)cc2)C(=O)[C@@H](N)CS3(=O)=O)o1)S(C)(=O)=O [Example 11, (3R)-3-amino-5-[(4-benzyloxyphenyl)methyl]-7-[5-(1-methyl-1-methylsulfonyl-ethyl)-1,3,4-oxadiazol-2-yl]-1,1-dioxo-2,3-dihydro-1λ6,5-benzothiazepin-4-one] | 145% | 495 nM | 1060 nM | 753 nM |  |  |
| CC(C)(c1nnc(-c2ccc3c(c2)N(Cc2ccc(-c4ccc(C(F)(F)F)cc4)nc2)C(=O)[C@@H](N)CS3(=O)=O)o1)S(C)(=O)=O [Example 57, (3R)-3-amino-7-[5-(1-methyl-1-methylsulfonyl-ethyl)-1,3,4-oxadiazol-2-yl]-1,1-dioxo-5-[[6-[4-(trifluoromethyl)phenyl]-3-pyridyl]methyl]-2,3-dihydro-1λ6,5-benzothiazepin-4-one] | 65% | 1110 nM | 8950 nM | 27200 nM |  |  |
| COc1cccc(-c2ccc(CN3C(=O)[C@@H](N)CS(=O)(=O)c4ccc(-c5nnc(C(C)(C)S(C)(=O)=O)o5)cc43)cc2)c1 [Example 22, (3R)-3-amino-5-[[4-(3-methoxyphenyl)phenyl]methyl]-7-[5-(1-methyl-1-methylsulfonyl-ethyl)-1,3,4-oxadiazol-2-yl]-1,1-dioxo-2,3-dihydro-1λ6,5-benzothiazepin-4-one] | 47% | > 10000 nM | 1640 nM | > 62500 nM |  |  |
| CC(C)(c1nc(-c2cc3c(cc2F)S(=O)(=O)C[C@H](N)C(=O)N3Cc2ccc(C3CCOCC3)cc2)no1)S(C)(=O)=O [Example 53, (3R)-3-amino-8-fluoro-7-[5-(1-methyl-1-methylsulfonyl-ethyl)-1,2,4-oxadiazol-3-yl]-1,1-dioxo-5-[(4-tetrahydropyran-4-ylphenyl)methyl]-2,3-dihydro-1λ6,5-benzothiazepin-4-one] | 167% | 3190 nM |  | 8050 nM |  |  |
